This note sets out measurements from ChEMBL document CHEMBL5291721, “A preclinical secondary pharmacology resource illuminates target-adverse drug reaction associations of marketed drugs” (Nat Commun, 2023).

Among the targets are Histamine H3 receptor (Homo sapiens, UniProt Q9Y5N1); D(3) dopamine receptor (Homo sapiens, UniProt P35462); D(1A) dopamine receptor (Homo sapiens, UniProt P21728).
Assay [1] has as its target T1, Alpha-1A adrenergic receptor (Homo sapiens, UniProt P35348).
T1 sequence (P35348 whole entry): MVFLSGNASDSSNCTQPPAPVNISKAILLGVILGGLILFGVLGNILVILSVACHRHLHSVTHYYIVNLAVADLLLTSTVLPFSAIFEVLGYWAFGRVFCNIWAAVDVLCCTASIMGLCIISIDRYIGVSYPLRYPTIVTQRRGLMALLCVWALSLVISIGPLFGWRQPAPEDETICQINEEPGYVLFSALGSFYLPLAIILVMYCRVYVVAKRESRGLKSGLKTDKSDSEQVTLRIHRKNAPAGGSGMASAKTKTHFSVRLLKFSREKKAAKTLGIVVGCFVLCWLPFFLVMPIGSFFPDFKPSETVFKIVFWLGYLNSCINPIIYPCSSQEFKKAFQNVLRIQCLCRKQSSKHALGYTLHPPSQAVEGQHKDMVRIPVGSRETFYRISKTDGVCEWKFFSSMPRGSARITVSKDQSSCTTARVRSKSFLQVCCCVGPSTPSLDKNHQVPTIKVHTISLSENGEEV
Format: functional, cell-based.

In assay [2] the target is Sodium-dependent serotonin transporter (Homo sapiens, UniProt P31645).
The target in the next assay is T2, Progesterone receptor (Homo sapiens, UniProt P06401).
T2 sequence (P06401 whole entry): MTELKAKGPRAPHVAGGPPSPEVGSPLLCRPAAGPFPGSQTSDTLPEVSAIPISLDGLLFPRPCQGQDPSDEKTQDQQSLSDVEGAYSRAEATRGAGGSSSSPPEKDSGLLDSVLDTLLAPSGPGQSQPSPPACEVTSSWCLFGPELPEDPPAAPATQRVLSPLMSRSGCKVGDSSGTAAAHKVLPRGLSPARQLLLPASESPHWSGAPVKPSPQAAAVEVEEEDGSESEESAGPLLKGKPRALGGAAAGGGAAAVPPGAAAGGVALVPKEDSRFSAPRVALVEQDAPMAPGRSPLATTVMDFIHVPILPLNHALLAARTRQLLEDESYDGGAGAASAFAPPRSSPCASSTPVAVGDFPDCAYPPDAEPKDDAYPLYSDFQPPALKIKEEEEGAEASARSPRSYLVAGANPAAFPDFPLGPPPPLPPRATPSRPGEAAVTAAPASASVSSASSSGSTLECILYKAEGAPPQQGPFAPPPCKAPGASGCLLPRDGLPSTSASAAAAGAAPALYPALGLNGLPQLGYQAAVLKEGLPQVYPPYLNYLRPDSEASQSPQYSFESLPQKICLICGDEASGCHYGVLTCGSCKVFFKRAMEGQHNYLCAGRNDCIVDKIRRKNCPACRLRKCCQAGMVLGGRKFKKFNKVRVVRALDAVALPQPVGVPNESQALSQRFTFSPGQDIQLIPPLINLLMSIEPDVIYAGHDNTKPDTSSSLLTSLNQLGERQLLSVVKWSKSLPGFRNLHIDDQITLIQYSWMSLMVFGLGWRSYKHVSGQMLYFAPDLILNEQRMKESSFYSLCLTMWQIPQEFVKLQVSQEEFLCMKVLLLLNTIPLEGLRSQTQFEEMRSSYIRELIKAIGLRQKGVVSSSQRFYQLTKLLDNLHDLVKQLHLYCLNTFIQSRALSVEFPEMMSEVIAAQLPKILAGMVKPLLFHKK

In another assay the target is T3, Adenosine receptor A3 (Homo sapiens, UniProt P0DMS8).
T3 sequence (P0DMS8 whole entry): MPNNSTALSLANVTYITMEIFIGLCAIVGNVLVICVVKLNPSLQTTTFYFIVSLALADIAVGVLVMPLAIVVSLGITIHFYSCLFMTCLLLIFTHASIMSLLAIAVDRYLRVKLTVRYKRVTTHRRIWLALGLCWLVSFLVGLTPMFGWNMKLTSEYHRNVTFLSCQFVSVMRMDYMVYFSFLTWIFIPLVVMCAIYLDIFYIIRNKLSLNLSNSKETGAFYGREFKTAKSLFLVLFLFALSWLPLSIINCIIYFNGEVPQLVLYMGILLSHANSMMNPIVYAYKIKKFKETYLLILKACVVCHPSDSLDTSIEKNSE

The target in another assay is T4, Thromboxane A2 receptor (Homo sapiens, UniProt P21731).
T4 sequence (P21731 whole entry): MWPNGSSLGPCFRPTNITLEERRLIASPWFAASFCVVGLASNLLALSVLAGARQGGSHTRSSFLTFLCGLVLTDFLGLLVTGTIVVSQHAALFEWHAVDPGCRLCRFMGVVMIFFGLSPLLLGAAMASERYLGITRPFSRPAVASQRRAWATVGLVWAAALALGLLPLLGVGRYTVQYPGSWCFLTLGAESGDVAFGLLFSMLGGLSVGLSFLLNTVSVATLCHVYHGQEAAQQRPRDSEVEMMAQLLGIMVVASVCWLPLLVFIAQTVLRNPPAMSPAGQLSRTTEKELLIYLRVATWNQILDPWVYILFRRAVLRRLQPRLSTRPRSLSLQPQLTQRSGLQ
Format: functional, cell-based.

Assay [3] has as its target Voltage-gated inwardly rectifying potassium channel KCNH2 (Homo sapiens, UniProt Q12809). Format: functional. The following applies: read-out: AC50.
The target in assay [4] is T5, Amine oxidase [flavin-containing] A (Homo sapiens, UniProt P21397).
T5 sequence (P21397 whole entry): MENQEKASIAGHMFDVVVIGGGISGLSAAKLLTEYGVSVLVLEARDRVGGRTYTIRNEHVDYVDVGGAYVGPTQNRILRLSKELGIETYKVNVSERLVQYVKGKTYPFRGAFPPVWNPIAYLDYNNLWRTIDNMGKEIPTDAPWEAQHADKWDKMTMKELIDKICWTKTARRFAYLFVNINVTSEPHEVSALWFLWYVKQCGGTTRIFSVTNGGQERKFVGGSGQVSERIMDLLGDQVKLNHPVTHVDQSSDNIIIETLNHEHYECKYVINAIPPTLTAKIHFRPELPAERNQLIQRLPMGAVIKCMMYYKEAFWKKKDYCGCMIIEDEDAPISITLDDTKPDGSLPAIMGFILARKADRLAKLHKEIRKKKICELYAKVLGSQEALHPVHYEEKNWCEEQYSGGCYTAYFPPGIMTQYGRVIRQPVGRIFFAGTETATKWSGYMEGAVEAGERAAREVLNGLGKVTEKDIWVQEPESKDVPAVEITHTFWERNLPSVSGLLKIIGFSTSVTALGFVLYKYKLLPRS
It counts as functional.

The target of a further assay is Prothrombin (Homo sapiens, UniProt P00734). Format: functional.

Where only a bound is given, the exact number is not on record here.
Further: assay procedure not described here.

Chain of D(3) dopamine receptor (P35462 whole entry): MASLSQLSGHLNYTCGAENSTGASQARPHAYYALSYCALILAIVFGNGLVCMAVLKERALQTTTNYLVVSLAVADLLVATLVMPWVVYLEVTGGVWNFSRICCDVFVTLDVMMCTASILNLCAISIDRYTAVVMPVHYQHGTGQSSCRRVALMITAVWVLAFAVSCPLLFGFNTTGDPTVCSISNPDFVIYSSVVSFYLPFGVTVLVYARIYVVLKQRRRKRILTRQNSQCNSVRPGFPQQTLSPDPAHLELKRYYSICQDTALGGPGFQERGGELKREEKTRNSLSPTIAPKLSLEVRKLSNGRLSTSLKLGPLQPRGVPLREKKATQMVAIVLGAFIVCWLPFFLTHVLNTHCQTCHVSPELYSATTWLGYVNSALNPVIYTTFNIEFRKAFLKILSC
Chain of Histamine H3 receptor (Q9Y5N1 whole entry): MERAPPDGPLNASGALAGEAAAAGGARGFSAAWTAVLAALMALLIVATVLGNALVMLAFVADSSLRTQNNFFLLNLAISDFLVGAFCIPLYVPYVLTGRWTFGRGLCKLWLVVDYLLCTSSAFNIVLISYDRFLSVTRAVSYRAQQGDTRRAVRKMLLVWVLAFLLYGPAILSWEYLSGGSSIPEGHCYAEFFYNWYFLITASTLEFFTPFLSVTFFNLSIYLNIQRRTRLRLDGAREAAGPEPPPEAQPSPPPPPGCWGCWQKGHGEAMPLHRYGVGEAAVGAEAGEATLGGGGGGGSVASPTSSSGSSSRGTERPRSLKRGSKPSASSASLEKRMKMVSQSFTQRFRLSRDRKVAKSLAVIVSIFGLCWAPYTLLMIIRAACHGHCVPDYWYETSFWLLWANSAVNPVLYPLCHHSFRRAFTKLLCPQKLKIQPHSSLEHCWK
Chain of Voltage-gated inwardly rectifying potassium channel KCNH2 (Q12809 whole entry): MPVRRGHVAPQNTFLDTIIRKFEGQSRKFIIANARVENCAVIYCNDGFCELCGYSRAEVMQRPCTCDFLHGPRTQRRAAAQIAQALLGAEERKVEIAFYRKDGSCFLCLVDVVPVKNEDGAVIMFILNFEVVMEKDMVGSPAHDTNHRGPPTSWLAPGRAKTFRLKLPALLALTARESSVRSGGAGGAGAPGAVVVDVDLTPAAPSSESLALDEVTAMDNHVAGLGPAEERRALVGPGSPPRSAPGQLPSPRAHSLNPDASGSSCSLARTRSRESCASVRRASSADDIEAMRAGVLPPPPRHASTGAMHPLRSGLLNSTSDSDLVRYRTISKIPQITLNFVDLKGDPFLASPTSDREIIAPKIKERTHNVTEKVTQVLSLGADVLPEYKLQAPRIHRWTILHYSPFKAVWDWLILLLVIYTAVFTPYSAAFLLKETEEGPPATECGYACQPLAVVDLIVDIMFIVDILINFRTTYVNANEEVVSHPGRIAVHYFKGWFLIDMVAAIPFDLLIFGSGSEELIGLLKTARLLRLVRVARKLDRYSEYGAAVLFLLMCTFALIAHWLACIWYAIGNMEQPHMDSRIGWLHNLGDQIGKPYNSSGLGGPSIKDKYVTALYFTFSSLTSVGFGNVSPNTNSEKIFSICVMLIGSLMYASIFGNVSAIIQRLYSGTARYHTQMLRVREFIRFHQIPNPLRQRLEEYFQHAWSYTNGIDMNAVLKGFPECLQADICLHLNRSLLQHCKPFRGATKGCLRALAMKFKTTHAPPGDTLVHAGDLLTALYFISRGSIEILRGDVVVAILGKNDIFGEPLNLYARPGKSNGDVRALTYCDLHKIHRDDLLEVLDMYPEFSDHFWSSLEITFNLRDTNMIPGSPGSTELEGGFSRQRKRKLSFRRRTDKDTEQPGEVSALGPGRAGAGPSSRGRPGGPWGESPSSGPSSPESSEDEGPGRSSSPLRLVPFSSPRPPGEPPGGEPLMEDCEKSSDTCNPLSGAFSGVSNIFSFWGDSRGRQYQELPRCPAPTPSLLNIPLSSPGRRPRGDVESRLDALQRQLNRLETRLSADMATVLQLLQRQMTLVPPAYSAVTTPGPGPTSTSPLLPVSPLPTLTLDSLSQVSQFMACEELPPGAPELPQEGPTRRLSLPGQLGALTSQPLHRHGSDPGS
Chain of Sodium-dependent serotonin transporter (P31645 whole entry): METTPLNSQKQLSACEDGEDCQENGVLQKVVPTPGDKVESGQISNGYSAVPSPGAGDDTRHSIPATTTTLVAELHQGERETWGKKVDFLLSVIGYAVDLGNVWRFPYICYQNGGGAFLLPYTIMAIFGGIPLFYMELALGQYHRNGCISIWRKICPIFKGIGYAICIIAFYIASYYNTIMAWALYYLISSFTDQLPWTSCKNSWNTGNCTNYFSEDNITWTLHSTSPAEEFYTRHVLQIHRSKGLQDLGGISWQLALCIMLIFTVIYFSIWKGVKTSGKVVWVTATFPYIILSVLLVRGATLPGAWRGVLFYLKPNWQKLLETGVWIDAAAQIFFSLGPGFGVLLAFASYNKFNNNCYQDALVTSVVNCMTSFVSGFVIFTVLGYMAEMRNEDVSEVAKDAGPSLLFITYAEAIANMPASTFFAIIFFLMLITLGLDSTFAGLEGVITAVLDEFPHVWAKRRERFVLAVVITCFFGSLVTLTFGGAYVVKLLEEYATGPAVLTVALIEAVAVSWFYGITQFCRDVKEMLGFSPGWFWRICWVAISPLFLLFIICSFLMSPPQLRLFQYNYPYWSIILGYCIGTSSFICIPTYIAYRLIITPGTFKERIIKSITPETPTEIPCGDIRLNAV
Chain of D(1A) dopamine receptor (P21728 whole entry): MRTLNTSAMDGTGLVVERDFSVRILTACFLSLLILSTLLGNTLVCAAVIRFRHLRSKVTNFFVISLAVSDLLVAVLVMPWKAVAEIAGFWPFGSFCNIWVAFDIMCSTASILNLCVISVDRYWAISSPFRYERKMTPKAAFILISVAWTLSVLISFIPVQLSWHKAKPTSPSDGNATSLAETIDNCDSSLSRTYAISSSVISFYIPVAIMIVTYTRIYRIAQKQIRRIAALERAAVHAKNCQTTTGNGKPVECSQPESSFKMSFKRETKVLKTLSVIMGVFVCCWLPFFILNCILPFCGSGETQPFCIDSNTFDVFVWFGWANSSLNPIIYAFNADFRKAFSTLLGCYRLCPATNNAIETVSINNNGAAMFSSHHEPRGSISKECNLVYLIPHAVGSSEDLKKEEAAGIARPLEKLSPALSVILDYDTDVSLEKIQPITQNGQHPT

Consider `O=C(Nc1ccccc1)OCC(CN1CCCCC1)OC(=O)Nc1ccccc1` (stereo not drawn) [DIPERODON], for which the half-maximal activity concentration (AC50) (as a rule, the midpoint of the concentration-response curve, whichever way the signal moves) is above 30 µM in assay [1]; above 30 µM in [2]; above 30 µM on Histamine H3 receptor; 23.5 µM at D(3) dopamine receptor; above 30 µM on Progesterone receptor; above 30 µM at Adenosine receptor A3. The half-maximal activity concentration (AC50) at D(1A) dopamine receptor is above 30 µM; at Thromboxane A2 receptor, above 30 µM; in assay [3], 5.4 µM; in [4], above 30 µM; at Prothrombin, above 30 µM.

On to `CC/C=C\C/C=C\C/C=C\C/C=C\C/C=C\CCCC(=O)O` [ICOSAPENT], for which the AC50 in [1] is above 30 µM; in assay [2], above 30 µM; at Histamine H3 receptor, above 30 µM; at D(3) dopamine receptor it was above 30 µM; on Progesterone receptor, above 30 µM; at Adenosine receptor A3, 25.3 µM. For the same compound, the AC50 (at D(1A) dopamine receptor; at Thromboxane A2 receptor; in assay [3]; in [4]; on Prothrombin) was above 30 µM each time.

Turning to `CC(C)Cc1ccc(C(C)C(=O)NO)cc1` (stereo not drawn) [IBUPROXAM], the AC50 (in assay [1]; in assay [2]; on Histamine H3 receptor; on D(3) dopamine receptor; on Progesterone receptor; on Adenosine receptor A3) was above 30 µM each time. Moreover, the AC50 (on D(1A) dopamine receptor; on Thromboxane A2 receptor; in assay [3]; in assay [4]; at Prothrombin) was above 30 µM in each case.
